Experimental data from US20010005714A1, “AMPHIPATHIC MOLECULES AS CHOLESTEROL AND OTHER LIPID UPTAKE INHIBITORS” (priority 1996, published 2001).

Assays:
rabbit BBMV = experiment: Dose response of cholesteryl oleate uptake from egg PC SUVs by rabbit BBMV (FIG. 4B); format: biochemical; conditions: donor 0.05 mg/ml total lipid, acceptor 1.7 mg protein/ml, 20 min at 25° C., curve fits of FIG. 4B
Protocol: Small unilamellar vesicles of egg phosphatidylcholine containing 1 mol % cholesteryl oleate and a trace amount of (1,2-^3H2 (N)]-cholesteryl oleyl ether (37 Ci/mmol, from Amersham, UK) as the donor were made as described in Example 1 and BBMVs as the acceptor were prepared from rabbit small intestine (see Example 1). Donor and acceptor both dispersed in Tris/NaCl buffer (0.05 M Tris HCl pH 7.4, 0.15 M NaCl, 0.02% NaN3) and a solution of human apo A-1 or sheep HDL in the same buffer were mixed at time zero (total volume: 0.1 ml) so that the final concentrations of donor and acceptor were 0.05 mg/ml total lipid and 1.7 mg protein/ml, respectively. After incubation of the suspension of donor and acceptor in the presence of inhibitor for 20 min. at 25° C., the reaction was stopped by dilution with 2 vol. of Tris/NaCl buffer. Donor and acceptor were separated by centrifugation in the airfuge at 115,000 g for 2 min. at […]., and the radioactivities in the supernatant containing donor vesicles and in the pellet containing BBMVs were determined in a BECKMAN™ LS 7500 scintillation counter. […]
Experimental conditions were as described for FIG. 4A. The cholesterol absorption activity of BBMVs measured in the absence of inhibition was taken as 100% and the loss in activity observed in the presence of inhibitor is expressed as %. […]

rabbit BBMVs = experiment: Sterol uptake inhibition using mixed bile salt micelles as donors; format: biochemical; conditions: 1.56 μM human apo A-1 or 1.98 μM fr.28-PBE94; 5 mM taurocholate, 0.6 mM oleic acid, 2 μM cholesterol; 10 min at 25° C.
Protocol: Since bile salt micelles are the most important lipid carriers in the small intestine, it is relevant to measure sterol uptake inhibition using mixed bile salt micelles as the donor. Donor micelles made of 50 mM taurocholate, 6 mM oleic acid and 20 μM radiolabelled cholesterol were prepared as follows: the lipids were mixed at these concentrations in 2:1 chloroform:methanol and the organic solvent was removed by rotary evaporation. The resulting lipid film was dried under high vacuum for at least 1 hour. The dried film was dispersed in the appropriate amount of Tris/NaCl to yield the desired micellar concentration. Acceptor rabbit BBMVs, prepared as described in Example 2, were mixed with either 1.56 μM human apo A-1 or 1.98 μM fr.28-PBE94. Donor mixed micelles were added to the acceptor/inhibitor dispersion to a final concentration of 5 mM taurocholate, 0.6 mM oleic acid and 2 μM radiolabelled cholesterol and the mixture incubated for 10 min at 25° C. […] Radioactivities in both pellet and supernatant were measured and results evaluated as described in Example 2; incubation with apo A-1 yielded 12% of the inhibitory activity measured at the same inhibitor concentration using SUVs as donor, and incubation with fr.28-PBE94 yielded 23% of the inhibitory activity measured at the same inhibitor concentration using SUVs as donor.

[1] = Denaturation by 10% TCA or boiling/chilling: protein remaining in supernatant; format: physicochemical
Text: Since the characterisation of sheep apo A-1 has not been reported yet, the physical characteristics of human and rabbit apo A-1 are reported for comparison (Chapman, Academic Press, Inc. San Diego, New York, Boston, London, Sydney, Tokyo. Toronto 70-143 1986)). Fr.28-PBE94 was subjected to N-terminal amino acid analysis. The first 29 amino acids of fr.28-PBE94 were 79.3% identical with rat apo A-1, 69.0% with rabbit apo A-1, 86.2% with bovine apo A-1 and 65.0% with human apo A-1. Fr.28-PBE94 cross-reacted with mouse monoclonal anti-human apo A-1 antibodies in Western blotting experiments. […] This is the floating density of high-density lipoproteins. After subjecting fr.28-PBE94 to the guanidine HCl treatment according to Nichols et al. (Nichols et al., Biochimica et Biophysica Acta 446 226-239 (1976)), fr.28-PBE94 was delipidated, showing the same behaviour as human apo A-1. […] Denatured proteins were removed by centrifugation, and protein and inhibitory activity remaining in the supernatant were determined (Table 4).

[2] = taken from Chapman (1986), for comparison; cited from earlier work
[3] = tested on: small intestine of Sprague-Dawly rats; experiment: In vivo cholesterol absorption in the small intestine of rats; conditions: ApoA-1 added to the diet
Text: The biological relevance of the inhibitory effect observed in vitro is confirmed by an in vivo experiment showing that cholesterol absorption in the small intestine of Sprague-Dawly rats can be inhibited by the amphipathic principle by more than 80%. ApoA-1 added to the diet was used as the inhibitor, because this protein could be purified from human serum in sufficient quantity. Bases or the experimental evidence presented we ppropose that the inhibitory effect on cholesterol uptake is not restricted to particular amphipathic molecules. It is likely that the chemical nature of the amphipathic compound is of secondary importance and that the geometry and the polarity of the compound are the decisive determinants. The results presented here have important implications since amphipathic molecules belonging to any class of biological compounds such as lipids, proteins or carbohydrates might inhibit cholesterol uptake by the brush border membrane.

[4] = tested on: brush border membrane vesicles (BBMV); experiment: IC50 of cholesteryl oleate uptake at the brush border membrane (Example 6); format: biochemical, rabbit; conditions: donor 0.1 mg total lipid/ml, acceptor 2 mg protein/ml; 20 min at 25° C.
Protocol: An appropriate amount of inhibitor dissolved in 84.5 μl buffer (0.05 M Tris pH 7.4, 0.15 M NaCl) is mixed in an Eppendorf tube at time zero with 5 μl of a dispersion of donor and 10.5 μl of a dispersion of acceptor (i.e. brush border membrane vesicles (BBMV)) in the same buffer. The final concentration of the donor vesicles was 0.1 mg total lipid/ml, that of the acceptor was 2 mg protein/ml. The resulting mixture was incubated for 20 min at 25° C., and the reaction was stopped by adding 60 μl of the incubation medium to 120 μl ice-cold bufferin an airfuge tube. The diluted dispersion was immediately centrifuiaed in the airfuge at […] for 2 min. at 4° C. to separate donor vesicles from BBMV. Two 60 μl aliquots of the donor (=supernatant) were counted in a Beckman LS-7500 liquid scintillating counter to determine the radioactivity remaining in tbe donor.
Small unilamellar egg phosphatidycholine (PC) vesicles containing 1 mol % of cholesterol oleate and a trace amount of ^3H-cholesterol oleyl ether were made by dissolving the appropriate amounts of the lipids in CHCl3/CH3OH, (2:1, by vol.), taking the solution to dryness on a rotary evaporator and drying the residue in vacuo. The dried lipid film was dispersed in the appropriate volume of buffer by hand-shaking. The lipid dispersion was subjected to tip sonication as described in Brunner et al, J. Biol. Chem. 253 7538-7546 (1978). The resulting donor dispersion in buffer was centrifuged in the airfuge at 100000 g for 2 min at […]. Only the top 80% of the donor dispersion after centrifugation was used in the lipid uptake experiment.
BBMV were prepared from frozen rabbit small intestine according to Hauser et al (Biochim. Biophys. Acta 602 567-577 (1980)). Prior to use in the uptake experiment determining IC50 values the BBMV were washed to remove any free protein liberated from the BBM. To this end the BBMV dispersion was diluted with buffer 1:1 in an airfuge tube, and the diluted dispersion was centrifuged in the airfuga at 100000 g for 2 min at […]. The supernatant was is carefully decanted, the pellet was resuspended in buffer to the original volume of the BBMV dispersion, and the dispersion was homogenized. […]

IC50 [4]: 0.5 ± 0.1 µM | IC50 (μg/mL) of cholesteryl oleate uptake at the brush border membrane [4]: 14 ± 3 µg/mL
Substance: human apo A-1: human apolipoprotein A-1, prepared from human HDL by delipidation and ion exchange chromatography
IC-50 (rabbit BBMV): 25 µg/mL | inhibitory activity with mixed bile salt micelles as donor, as % of that measured at the same inhibitor concentration using SUVs as donor (rabbit BBMVs): 12% | protein (%) remaining in the supernatant ([1]; after TCA precipitation (10% TCA)): 0% | protein (%) remaining in the supernatant ([1]; after boiling/chilling (4 cycles, 5 min each)): 27% | isoelectric point [2]: 5.52 | inhibition of cholesterol absorption in the small intestine [3]: more than 80%
